Data: patent US20220177520A1, “PEPTIDES INHIBITING ANDROGEN RECEPTOR ACTIVITY, AND COSMETICS COMPOSITION USING SAME” (SUPADELIXIR INC., priority 2019, published 2022)

What was measured:
[1] = tested on: androgen receptor; test: PSA expression in DHT-treated prostate cancer cells (Western blot); assay type: cell-based; conditions: LNCaP cells, DHT 20 nM plus AR Pep1 1, 10, 100 μM, 24 hours, versus DHT only; FIG. 1
Description: 1. Prostate cancer cells (LNCaP) were prepared at a density of 5×10^6 cells per well, treated with DHT at a concentration of 20 nM and with AR Pep1 at a concentration of 1, 10, 100 μM respectively, then cultured in an incubator at 37° C. in the presence of 5% CO2 for 24 hours. As a control group, one with no treatment at all and one treated only with DHT were used. The cancer cells were washed with PBS three times, and lysed with 1% NP40 lysis buffer (1% Nonidet P40, 0.1 M NaCl, 0.05 M tris (pH 8.0), 5 mM EDTA) containing […] PMSP (phenylmethylsulfonyl fluoride), 1 μg/ml pepstatin A, 10 μg/ml leupeptin, 1 μg/ml aprotinin and 1 mM Na3VO4.
2. The cell lysate was quantified using Bradford assay to prepare a protein sample for electrophoresis.
Immunoprecipitates were subjected to 12.5% polyacrylamide gel electrophoresis, then the unfolded protein was transferred onto a nitrocellulose membrane, treated with a blocking solution (Tris-buffered saline (TBS) containing 0.05% Tween 20 and 3% bovine serum albumin) for about one hour at room temperature. Then, the membrane was suspended in TBS buffer containing Anti-PSA polyclonal antibody (Santa cruz, CA, USA) for two hours and washed with TBS buffer containing 0.05% Tween 20. […]

[2] = biological target: T1, AR and POL II (Homo sapiens, UniProt P10275); test: Physical binding of AR and POL II in DHT-treated human keratinocytes (in situ PLA); assay type: cell-based; conditions: HaCaT cells, DHT 20 nM plus AR Pep1 20 nM, 1, 10, 100 μM, 24 hours, versus DHT only; FIG. 2
T1 construct: Human keratinocytes (HaCaT) were prepared at a density of 4.5×10^4 cells per well, treated with DHT; endogenous in cells; host or cells: HaCaT human keratinocytes
T1 sequence (P10275 1-920): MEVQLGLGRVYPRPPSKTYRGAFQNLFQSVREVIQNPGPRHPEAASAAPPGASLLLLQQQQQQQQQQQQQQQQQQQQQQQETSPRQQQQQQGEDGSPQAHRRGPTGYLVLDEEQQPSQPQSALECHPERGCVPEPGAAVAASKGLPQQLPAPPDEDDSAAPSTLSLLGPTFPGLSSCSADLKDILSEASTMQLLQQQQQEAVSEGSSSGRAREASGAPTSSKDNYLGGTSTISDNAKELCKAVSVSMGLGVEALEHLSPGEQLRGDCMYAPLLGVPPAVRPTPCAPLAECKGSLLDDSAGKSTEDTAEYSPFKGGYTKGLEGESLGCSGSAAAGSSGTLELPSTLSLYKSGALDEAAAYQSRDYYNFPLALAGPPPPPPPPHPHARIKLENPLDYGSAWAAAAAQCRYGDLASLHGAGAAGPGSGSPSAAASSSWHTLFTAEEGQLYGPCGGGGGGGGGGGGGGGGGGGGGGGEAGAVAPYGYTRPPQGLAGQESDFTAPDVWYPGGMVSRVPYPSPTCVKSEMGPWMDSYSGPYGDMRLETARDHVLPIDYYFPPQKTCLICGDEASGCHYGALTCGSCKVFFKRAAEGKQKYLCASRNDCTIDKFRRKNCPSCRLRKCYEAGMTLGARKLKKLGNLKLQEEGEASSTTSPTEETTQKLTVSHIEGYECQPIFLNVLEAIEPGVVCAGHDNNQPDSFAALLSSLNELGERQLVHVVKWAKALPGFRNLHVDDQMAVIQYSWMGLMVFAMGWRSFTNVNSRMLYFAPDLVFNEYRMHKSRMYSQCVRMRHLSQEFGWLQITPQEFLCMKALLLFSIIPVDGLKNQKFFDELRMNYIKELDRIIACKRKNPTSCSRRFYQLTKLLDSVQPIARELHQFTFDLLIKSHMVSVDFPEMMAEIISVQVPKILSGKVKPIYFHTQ
Description: 1. Human keratinocytes (HaCaT) were prepared at a density of 4.5×10^4 cells per well, treated with DHT at a concentration of 20 nM and with AR Pep1 at a concentration of 20 nM, 1, 10, 100 μM respectively, then cultured in an incubator at 37° C. in the presence of 5% CO2 for 24 hours. As a control, one with no treatment at all and one treated only with DHT were used. The cells in each well were washed with PBS, fixed in 2% formaldehyde for five minutes, and treated with 0.1% TritonX-100 for five minutes to enhance antibody permeability into cells. Then, Anti-AR polyclonal antibody (Santa cruz, USA) and Anti-POL II monoclonal antibody (Santa cruz, USA) were added, PLA probe was applied using In situ PLA kit (Sigma-Aldrich), and steps of hybridization, ligation, amplification, and mounting were performed.
2. Luminescence signals (PLA signals) detected from each cell were measured with a confocal laser microscope (Olympus fluoview FW1000; Olympus, Japan), physical interaction between the AR and POL II antibodies was quantified.

Substance: Asp-Lys-Phe (DKF; Peptide 1) [AR Pep1]
- expression of prostate-specific antigen (PSA) [1]: expression of the PSA was reduced
- physical interaction between the AR and POL II (PLA signals) [2]: the increase in that interaction was reduced
